Reference: ChEMBL document CHEMBL3046955, “Antiviral effects of three novel derivatives of adefovir on the replication of hepatitis B virus” (Med Chem Res, 2012)
Active and inactive are the calls of the source. The calls are words filed in the database; no cut-off is given here.

Experiments:
[1] = test system: Duck hepatitis B virus; test: Antiviral activity against Duck hepatitis B virus (DHBV) infected po dosed duck assessed as reduction in viral DNA level administered for 30 days measured on day 15 post initial treatment by RT-PCR analysis; type: functional, organism-based
[2] = test system: HepG2; test: Cytotoxicity against Homo sapiens (human) HepG2 cells at <1000 uM after 72 hr by MTT assay; type: cell-based; conditions: hepg2, 72 h
[3] = test system: Duck hepatitis B virus; test: Antiviral activity against Duck hepatitis B virus (DHBV) infected duck assessed as liver weight at 10 mg/kg, po for 30 days (reference value: 1.25 g); type: functional
[4] = test system: Duck hepatitis B virus; test: Antiviral activity against Duck hepatitis B virus (DHBV) infected po dosed duck assessed as reduction in viral DNA level administered for 30 days measured on day 15 post termination of treatment by RT-PCR analysis; type: functional, organism-based
[5] = test system: Duck hepatitis B virus; test: Antiviral activity against Duck hepatitis B virus (DHBV) infected duck assessed as liver weight at 2 mg/kg, po for 30 days (reference value: 1.25 g); type: functional
[6] = test system: HepG2; test: Cytotoxicity against Homo sapiens (human) HepG2 assessed as mitochondrial DNA level at 0.1 to 10 umol for 8 days by dot blot assay; type: cell-based; conditions: hepg2, 192 h
[7] = test system: Duck hepatitis B virus; test: Antiviral activity against Duck hepatitis B virus (DHBV) infected duck assessed as reduced inflammation in liver at 2 to 50 mg/kg, po for 30 days; type: functional, organism-based
[8] = test system: Duck hepatitis B virus; test: Antiviral activity against Duck hepatitis B virus (DHBV) infected duck assessed as liver weight at 50 mg/kg, po for 30 days (reference value: 1.25 g); type: functional
[9] = test system: Duck hepatitis B virus; test: Antiviral activity against Duck hepatitis B virus (DHBV) infected po dosed duck assessed as reduction in viral DNA level administered for 30 days measured on day 30 by RT-PCR analysis; type: functional, organism-based
[10] = test system: Duck hepatitis B virus; test: Antiviral activity against Duck hepatitis B virus (DHBV) infected duck assessed as reduction in viral DNA level at 10 mg/kg, po for 30 days measured on day 30 by RT-PCR analysis; type: functional, organism-based; design: dose 10 mg/kg
[11] = test system: Duck hepatitis B virus; test: Antiviral activity against Duck hepatitis B virus (DHBV) infected duck assessed as reduction in viral DNA level at 10 mg/kg, po for 30 days measured on day 15 post termination of treatment by RT-PCR analysis; type: functional, organism-based; design: dose 10 mg/kg
[12] = test system: Duck hepatitis B virus; test: Antiviral activity against Duck hepatitis B virus (DHBV) infected duck assessed as viral DNA level at 10 mg/kg, po for 30 days measured on day 15 post initial treatment by RT-PCR analysis; type: functional, organism-based; design: dose 10 mg/kg
[13] = test system: Duck hepatitis B virus; test: Antiviral activity against Duck hepatitis B virus (DHBV) infected duck assessed as reduced inflammation in liver at 10 mg/kg, po for 30 days; type: functional, organism-based; design: dose 10 mg/kg
[14] = test system: Duck hepatitis B virus; test: Antiviral activity against Duck hepatitis B virus (DHBV) infected duck assessed as reduction in viral DNA level at 2 to 50 mg/kg, po for 30 days measured on day 15 post termination of treatment by RT-PCR analysis; type: functional, organism-based
[15] = test system: Duck hepatitis B virus; test: Antiviral activity against Duck hepatitis B virus (DHBV) infected duck assessed as reduction in viral DNA level at 2 to 50 mg/kg, po for 30 days measured on day 30 by RT-PCR analysis; type: functional, organism-based
[16] = test system: Duck hepatitis B virus; test: Antiviral activity against Duck hepatitis B virus (DHBV) infected duck assessed as reduction in viral DNA level at 2 to 50 mg/kg, po for 30 days measured on day 15 post initial treatment by RT-PCR analysis; type: functional, organism-based
[17] = test system: Duck hepatitis B virus; test: Antiviral activity against Duck hepatitis B virus (DHBV) infected duck assessed as viral DNA level at 2 to 50 mg/kg, po for 30 days measured on day 15 post initial treatment by RT-PCR analysis; type: functional, organism-based
[18] = test system: HepG2; test: Cytotoxicity against Homo sapiens (human) HepG2 assessed as mitochondrial DNA level for 8 days by dot blot assay; type: cell-based; conditions: hepg2, 192 h

SMILES | inhibition [1] | Activity [2] | Activity [3] [g] | inhibition [4] | Activity [5] [g] | Activity [6] | inhibition [7] | Activity [8] [g] | inhibition [9] | inhibition [10] | inhibition [11] | Activity [12] | inhibition [13] | inhibition [14] | inhibition [15] | inhibition [16] | Activity [17] | Activity [18]
CSc1ccc(Sc2nc(N)nc3c2ncn3CCOCP(=O)(OCC(F)(F)F)OCC(F)(F)F)cc1 | Dose-dependent effect | Non-toxic | 0.75 | Dose-dependent effect | 0.8 | Non-toxic | Active | 0.55 | Dose-dependent effect | – | – | – | – | – | – | – | – | –
CC(C)(C)C(=O)OCOP(=O)(COCCn1cnc2c(N)ncnc21)OCOC(=O)C(C)(C)C [ADEFOVIR DIPIVOXIL] | – | Non-toxic | 0.8 | – | – | – | – | – | – | Active | Active | inactive | Active | – | – | – | – | –
CC(Cn1cnc2c(Sc3ccc4c(c3)CCO4)nc(N)nc21)OCP(=O)(OCC(F)(F)F)OCC(F)(F)F (stereo unspecified) | – | Non-toxic | 0.75 | – | 0.9 | Non-toxic | Active | 0.95 | – | – | – | – | – | Active | Active | Active | inactive | –
COc1ccc(Sc2nc(N)nc3c2ncn3CCOCP(=O)(OCC(F)(F)F)OCC(F)(F)F)cc1F | – | Non-toxic | 0.8 | – | 0.8 | Non-toxic | Active | 0.85 | – | – | – | – | – | Active | Active | Active | – | –
Nc1ccn([C@H]2CC[C@@H](CO)O2)c(=O)n1 [ZALCITABINE] | – | – | – | – | – | Toxic | – | – | – | – | – | – | – | – | – | – | – | Dose-dependent effect
